Measurements taken from patent US20060135571A1, “Imidazo(2,1-b)-1,3,4-thiadiazole sulfoxides and sulfones” (priority 2003, published 2006).

System: SCG neurons
Experiment: Protection of SCG neurons from anti-NGF killing
Assay type: cell-based, Sprague Dawley rats
Conditions: Rattus norvegicus, Neuron; anti-NGF antibody, 48 hours, Alamar Blue viability; read-out: IC(50), rescue from anti-NGF killing of SCG neurons
Protocol: Neurotrophins are critical to the growth, development, and survival of small fiber neurons of the PNS. […] In a typical experiment SCG neurons are cultured in the presence of NGF, which induces survival and neurite out-growth. After 5 days the NGF is removed by either the addition of anti-NGF polyclonal antibody (Sigma) or by repeated washings (4 times) with NGF free media, resulting in the apoptosis of up to 90% of the neurons after 48 hours, as measured by MTS staining. The addition of selected compounds of Formula I to the final cellular media provides upwards of 100% protection, at drug concentrations ranging from 1 to 50 μM (see Example 73).
SCG neurons were isolated from day 1 neonatal Sprague Dawley rats, plated at a cell density of 5,000 cells/well, and incubated in Biowhittaker Utraculture containing 1% Penstrep, 1% L-glutamine, 0.7% ARAC, 3% rat serum, and NGF (50 ng/mL, Calomone Labs), at 37° C., under a 5% CO2 atmosphere. After 4 days the cells were treated with anti-NGF antibody (Sigma). At this time compound was added and the cells were maintained serum and NGF free for 48 hours, at which time viability was assessed using Alamar Blue (Medicorp) staining.
`[O-][S+](CCc1ccccc1)c1nn2cc(-c3ccc(Oc4ccc(Cl)cc4)cc3)nc2s1` (stereo not drawn) [Compound 3] gave an IC50 of 8 µM. `O=S(=O)(CCc1ccccc1)c1nn2cc(-c3ccc(Oc4ccc(Cl)cc4)cc3)nc2s1` [Compound 4] gave an IC50 of 6 µM.

System: SCG neurons
Experiment: In vitro protection of SCG neurons from Taxol killing
Assay type: cell-based, Sprague Dawley rats
Conditions: Rattus norvegicus, Neuron, 48 h, read-out: IC50, rescue from Taxol killing of SCG neurons
Protocol: Taxol™ is regularly used in breast cancer chemotherapy. In cancer cells Taxol™ binds to the cyto-skeletal protein tubulin, thereby inhibiting normal microtubular assembly and inducing cellular apoptosis. Despite its potency as an anti-tumour agent, Taxol™ is also toxic to neurons, inducing dose limiting peripheral neuropathies. The addition of Taxol™ (100 ng/mL) to cultured SCG neurons induces the degradation or loss of upwards of 80% of the neurons. The addition of selected compounds of Formula I to the cellular media, concurrently with Taxol™, protects upwards of 100% of the neurons, at drug concentrations ranging from 1 to 50 μM (see Example 74).
(§1) SCG neurons were isolated from day 1 neonatal Sprague Dawley rats, plated at a cell density of 10,000 cells/well, and incubated in Biowhittaker Utraculture containing 1% Penstrep, 1% L-glutamine, 0.7% ARAC, 3% rat serum, and NGF (50 ng/mL, Calomone Labs) at 37° C., under a 5% CO2 atmosphere. After 5 days the cells were treated with compound and Taxol™ (50 ng/mL). Viability was assessed 48 hours later using MTS (Promega) staining.
Work on `[O-][S+](CCN1CCC(Cc2ccccc2)CC1)c1nn2cc(-c3ccccc3)nc2s1` (stereo not drawn) [Compound 63] yielded an IC50 of 10 µM.

Same assay, conditions: Rattus norvegicus, Neuron; Taxol 50 ng/mL, 48 hours, MTS viability; read-out: IC50, rescue from Taxol killing of SCG neurons
`[O-][S+](Cc1ccccc1)c1nn2cc(-c3c(F)c(F)c(F)c(F)c3F)nc2s1` (stereo not drawn) [Compound 1] gave an IC50 of 1 µM. `[O-][S+](CCc1ccccc1)c1nn2cc(-c3ccc(Oc4ccc(Cl)cc4)cc3)nc2s1` (stereo not drawn) [Compound 3] showed an IC50 of 7 µM. In the case of `O=S(=O)(CCc1ccccc1)c1nn2cc(-c3ccc(Oc4ccc(Cl)cc4)cc3)nc2s1` [Compound 4], the IC50 is reported as 1 µM. `[O-][S+](Cc1ccccn1)c1nn2cc(-c3ccccc3)nc2s1` (stereo not drawn) [Compound 5] gave an IC50 of 1 µM. `O=S(=O)(Cc1ccccn1)c1nn2cc(-c3ccccc3)nc2s1` [Compound 6] showed an IC50 of 1.5 µM. `O=S(=O)(Cc1cccnc1)c1nn2cc(-c3ccccc3)nc2s1` [Compound 8] showed an IC50 of 0.8 µM. With `[O-][S+](Cc1ccncc1)c1nn2cc(-c3ccccc3)nc2s1` (stereo not drawn) [Compound 9] the IC50 was 0.8 µM. With `O=S(=O)(Cc1ccncc1)c1nn2cc(-c3ccccc3)nc2s1` [Compound 10] the IC50 was 0.8 µM. With `[O-][S+](Cc1ccccn1)c1nn2cc(-c3cccc(F)c3)nc2s1` (stereo not drawn) [Compound 13] the IC50 was 1 µM. `O=S(=O)(Cc1ccccn1)c1nn2cc(-c3cccc(F)c3)nc2s1` [Compound 14] gave an IC50 of 3 µM. For `[O-][S+](Cc1ccccn1)c1nn2cc(-c3ccc(Oc4ccc(Cl)cc4)cc3)nc2s1` (stereo not drawn) [Compound 15], the IC50 was 1 µM. For `O=S(=O)(Cc1ccccn1)c1nn2cc(-c3ccc(Oc4ccc(Cl)cc4)cc3)nc2s1` [Compound 16], the IC50 was 0.5 µM. In the case of `[O-][S+](Cc1ccncc1)c1nn2cc(-c3ccc(Oc4ccc(Cl)cc4)cc3)nc2s1` (stereo not drawn) [Compound 17], the IC50 is reported as 2 µM. With `[O-][S+](CCc1ccccn1)c1nn2cc(-c3ccc(F)cc3)nc2s1` (stereo not drawn) [Compound 19] the IC50 was 6 µM. `[O-][S+](CCN1CCOCC1)c1nn2cc(-c3ccc(F)cc3)nc2s1` (stereo not drawn) [Compound 28] showed an IC50 of 5 µM. Work on `CN(C)CC[S+]([O-])c1nn2cc(-c3cccc(F)c3)nc2s1` (stereo not drawn) [Compound 29] yielded an IC50 of 1 µM. Work on `[O-][S+](Cc1ccncc1)c1nn2cc(-c3ccc(N4CCOCC4)cc3)nc2s1` (stereo not drawn) [Compound 30] yielded an IC50 of over 10 µM. With `CC[S+]([O-])c1nn2cc(-c3ccc(OCCO)cc3)nc2s1` (stereo not drawn) [Compound 32] the IC50 was 5 µM. Work on `CCS(=O)(=O)c1nn2cc(-c3ccc(OCCO)cc3)nc2s1` [Compound 33] yielded an IC50 of 1 µM. Work on `CC(C)(C)OC(=O)NCC[S+]([O-])c1nn2cc(-c3ccccn3)nc2s1` (stereo not drawn) [Compound 35] yielded an IC50 of 2 µM. With `CC[S+]([O-])c1nn2cc(-c3ccccn3)nc2s1` (stereo not drawn) [Compound 37] the IC50 was 2 µM. For `CC[S+]([O-])c1nn2cc(-c3cnccn3)nc2s1` (stereo not drawn) [Compound 40], the IC50 was 3 µM. Work on `NCCS(=O)(=O)c1nn2cc(-c3ccccc3)nc2s1` [Compound 44] yielded an IC50 of 2 µM. `CN(C)CC(=O)NCCS(=O)(=O)c1nn2cc(-c3ccc(F)cc3)nc2s1` [Compound 48] showed an IC50 of 0.8 µM. `CC(=O)Nc1ccc(S(=O)(=O)c2nn3cc(-c4ccccn4)nc3s2)cc1` [Compound 52] showed an IC50 of 1 µM. `CN1CCN(CC[S+]([O-])c2nn3cc(-c4ccccc4)nc3s2)CC1` (stereo not drawn) [Compound 54] showed an IC50 of 3 µM. With `CN1CCCN(CC[S+]([O-])c2nn3cc(-c4ccccc4)nc3s2)CC1` (stereo not drawn) [Compound 56] the IC50 was 1 µM. `[O-][S+](CCN1CCNCC1)c1nn2cc(-c3ccccc3)nc2s1` (stereo not drawn) [Compound 58] gave an IC50 of 1 µM. `CC(=O)N1CCN(CC[S+]([O-])c2nn3cc(-c4ccccc4)nc3s2)CC1` (stereo not drawn) [Compound 60] showed an IC50 of 1 µM. Work on `[O-][S+](CCN1CCCCC1)c1nn2cc(-c3ccccc3)nc2s1` (stereo not drawn) [Compound 61] yielded an IC50 of 10 µM. For `[O-][S+](CCN1CCC(O)CC1)c1nn2cc(-c3ccccc3)nc2s1` (stereo not drawn) [Compound 62], the IC50 was 10 µM. With `CC(=O)N1CCN(CC[S+]([O-])c2nn3c(-c4ccccc4)cnc3s2)CC1` (stereo not drawn) [Compound 65] the IC50 was 10 µM. `[O-][S+](CCN1CCN(Cc2ccccc2)CC1)c1nn2c(-c3ccccc3)cnc2s1` (stereo not drawn) [Compound 66] gave an IC50 of 10 µM. In the case of `CN1CCN(CCC[S+]([O-])c2nn3cc(-c4ccccc4)nc3s2)CC1` (stereo not drawn) [Compound 69], the IC50 is reported as 1 µM. `CN1CCN(CC[S+]([O-])c2nn3cc(-c4ccc(F)cc4)nc3s2)CC1` (stereo not drawn) [Compound 70] showed an IC50 of 1 µM. With `CN1CCN(CC[S+]([O-])c2nn3cc(-c4ccc5c(c4)OCCCO5)nc3s2)CC1` (stereo not drawn) [Compound 71] the IC50 was 3 µM.

System: SCG neurons
Experiment: In vitro protection of SCG neurons from cisplatin killing
Assay type: cell-based, Sprague Dawley rats
Conditions: Rattus norvegicus, Neuron; cisplatin 3 μg/mL, 48 hours, MTS viability; read-out: IC50, protection of SCG neurons against cisplatin killing
Protocol: The mechanism of Cisplatin's anti-cancer action is not fully understood, but is believed to involve DNA binding and cleavage. Cisplatin is highly toxic to neurons. The addition of cisplatin (3 μg/mL) to cultured SCG neurons induces apoptosis of upwards of 80% of the neurons. The addition of selected compounds of Formula I to the cellular media, concurrently with cisplatin, protects upwards of 100% of the neurons, at drug concentrations ranging from 1 to 50 μM (see Example 75).
as §1, with “cisplatin (3 μg/mL).” for “Taxol™ (50 ng/mL).”
`O=S(=O)(Cc1ccccc1)c1nn2cc(-c3c(F)c(F)c(F)c(F)c3F)nc2s1` [Compound 2] gave an IC50 of 0.8 µM. `O=S(=O)(Cc1ccccn1)c1nn2cc(-c3ccc(Oc4ccc(Cl)cc4)cc3)nc2s1` [Compound 16] gave an IC50 of 0.5 µM. `[O-][S+](Cc1ccncc1)c1nn2cc(-c3ccc(Oc4ccc(Cl)cc4)cc3)nc2s1` (stereo not drawn) [Compound 17] gave an IC50 of 0.3 µM. With `O=S(=O)(Cc1ccncc1)c1nn2cc(-c3ccc(Oc4ccc(Cl)cc4)cc3)nc2s1` [Compound 18] the IC50 was 0.3 µM. For `[O-][S+](CCc1ccccn1)c1nn2cc(-c3ccc(F)cc3)nc2s1` (stereo not drawn) [Compound 19], the IC50 was 0.8 µM. Work on `[O-][S+](CCN1CCOCC1)c1nn2cc(-c3ccc(F)cc3)nc2s1` (stereo not drawn) [Compound 28] yielded an IC50 of 1 µM. In the case of `CN(C)CC[S+]([O-])c1nn2cc(-c3cccc(F)c3)nc2s1` (stereo not drawn) [Compound 29], the IC50 is reported as 3 µM. `NCCS(=O)(=O)c1nn2cc(-c3ccccc3)nc2s1` [Compound 44] showed an IC50 of 2 µM. `CS(=O)(=O)NCCS(=O)(=O)c1nn2cc(-c3ccccc3)nc2s1` [Compound 45] showed an IC50 of 1 µM. `CN1CCN(CCC[S+]([O-])c2nn3cc(-c4ccccc4)nc3s2)CC1` (stereo not drawn) [Compound 69] showed an IC50 of 1 µM. `CN1CCN(CC[S+]([O-])c2nn3cc(-c4ccc(F)cc4)nc3s2)CC1` (stereo not drawn) [Compound 70] showed an IC50 of 1 µM.

System: SK-N-AS
Experiment: Sulforhodamine B assay, killing of SK-N-AS neuroblastoma cells
Assay type: cell-based, Human
Conditions: 72 hours, sulforhodamine B
Protocol: (§2) Compound represented by Formula I were tested for anti-cancer properties using the sulforhodamine B assay. Human neuroblastomas SK-N-AS, and SH-SY5Y were plated in 96 well plates at a density of 15 000 cells/well. Daoy medulloblastoma cells were plated at a density of 2000 cells/well. Cells were cultured in RPMI supplemented with 5% fetal bovine serum and test compounds. After 72 hours of culture cell growth was assessed by sulforhodamine B. Cellular protein was precipitated and fixed with trichloroacetic acid and detected by incubation with sulforhodamine B. Bound dye solubilized in trizma base and was assessed by absorbance at 515 nm. Compound 28 caused either cell death or inhibited cellular proliferation of the SK-N-AS and SH-SY5Y neuroblastoma and daoy medulloblastoma cells with ED50s of 7, 5, and 2 µM, respectively.
(§3) Human neuroblastomas SK-N-AS, and SH-SY5Y were plated in 96 well plates at a density of 15 000 cells/well. Daoy medulloblastoma cells were plated at a density of 2000 cells/well. Cells were cultured in RPMI supplemented with 5% fetal bovine serum and test compound at various concentrations. After 72 hours of culture cell growth was assessed by sulforhodamine B. Cellular protein was precipitated and fixed with trichloroacetic acid and detected by incubation with sulforhodamine B. Bound dye solublized in trizma base and was assessed by absorbance at 515 nm.
With `[O-][S+](CCN1CCOCC1)c1nn2cc(-c3ccc(F)cc3)nc2s1` (stereo not drawn) [Compound 28] the “ED50, cell death or inhibited cellular proliferation” value was 7 µM.

Same assay, conditions: FIG. 1, sulforhodamine B
For `[O-][S+](CCN1CCOCC1)c1nn2cc(-c3ccc(F)cc3)nc2s1` (stereo not drawn) [Compound 28], the “concentration at which the cell line is potently killed in vitro (as low as)” value (from here on “concentration”) was at least 5 µM.

System: SH-SY5Y
Experiment: Sulforhodamine B assay, killing of SH-SY5Y neuroblastoma cells
Assay type: cell-based, Human
Conditions: 72 hours, sulforhodamine B
Protocol: as §2, §3
For `[O-][S+](CCN1CCOCC1)c1nn2cc(-c3ccc(F)cc3)nc2s1` (stereo not drawn) [Compound 28], the “ED50, cell death or inhibited cellular proliferation” value was 5 µM.

Same assay, conditions: FIG. 1, sulforhodamine B
With `[O-][S+](CCN1CCOCC1)c1nn2cc(-c3ccc(F)cc3)nc2s1` (stereo not drawn) [Compound 28] the “concentration” value was at least 5 µM.

System: Daoy medulloblastoma cells
Experiment: Sulforhodamine B assay, killing of Daoy medulloblastoma cells
Assay type: cell-based
Conditions: 72 hours, sulforhodamine B
Protocol: as §2, §3
For `[O-][S+](CCN1CCOCC1)c1nn2cc(-c3ccc(F)cc3)nc2s1` (stereo not drawn) [Compound 28], the “ED50, cell death or inhibited cellular proliferation” value was 2 µM.

Same assay, conditions: FIG. 1, sulforhodamine B
For `[O-][S+](CCN1CCOCC1)c1nn2cc(-c3ccc(F)cc3)nc2s1` (stereo not drawn) [Compound 28], the “concentration” value was at least 5 µM.

System: not listed separately
Experiment: Aqueous solubility in saline
Assay type: physicochemical
Conditions: saline or isotonic, acid salt
Protocol: Select compounds bearing a basic moiety display good aqueous solubility as the corresponding acid salt. For example, compound 56.2HCl is soluble at >100 mg/mL in saline, allowing for the ready application of these compounds via multiple routes of administration either oral or percutaneous.
With `CN1CCCN(CC[S+]([O-])c2nn3cc(-c4ccccc4)nc3s2)CC1` (stereo not drawn) [Compound 56.2HCl] the solubility was over 100 mg/mL.
